System: ÜBERGEWICHTIGEN FRAUEN
Experiment: Three-year placebo-controlled prophylaxis study: incidence of diabetes mellitus in overweight persons with impaired oral glucose tolerance
Assay type: in vivo, Patienten
Details: for DIABETES MELLITUS (ERKRANKUNGSRATE AN DIABETES MELLITUS): number of cases (WHO definition), 2 X 3 mg tgl.
Excerpt: Es wurden 122 übergewichtigte Personen ausgesucht, die im Mittel 25 % Übergewicht und eine gestörte orale Glukosetoleranz hatten. Diese Patienten gaben nach Aufklärung ihr Einverständnis an dieser Studie über 3 Jahre teilzunehmen. Sie hatten bereits 5 bis 10 Versuche einer Gewichtsabnahme hinter sich, die alle erfolglos verlaufen waren. Ein Diabetes mellitus war nach der Definition des World Health Organization-Reports (Techn. Rep. Ser. 646, 1-80, 1980), bei diesen Patieten ausgeschlossen. Sie wurden in zwei gleich starke Gruppen eingeteilt, so daß nach Alter, Ausmaß der Störung des Glucose-Toleranz-Tests (OGTT) und Größe und Dauer des Übergewichts kein Unterschied bestand. Die Patienten wurden in halbjährlichen Abständen ambulant kontrolliert. Wie zu Beginn, wurden bei diesen Kontrollen folgende Blutwerte gemessen: Blutsenkung, Blutbild, Nüchternblutzucker, OGTT, Gewicht, Cholesterin und Triglyzeride, Serum Glutamat-Oxalat-Transaminase (SGOT), Serum Glutamat-Pyruvat Transaminase (SGPT). Damit wurden den Stoffwechesl beeinträchtigende Krankheiten ausgeschlossen.
Sie erste Gruppe erhielt 2 x 3 mg Captopril täglich, die zweite entsprechend Placebo. Die Patienten hatten die Auflage, keine den Stoffwech l beeinträchtigende Medikamente, z.B. Diuretika, β-Blocker ode dergleichen einzunehmen. In beiden Gruppen schieden über den Zeitraum von 3 Jahren 28 Patienten aus verschiede nen Gründen aus. Die Gruppen veränderten sich dadurch jedoch nicht so, daß sie statistisch nicht mehr auswertbar waren.

C[C@H](CS)C(=O)N1CCC[C@H]1C(=O)O [Captopril, 1-[(2S)-3-Mercapto-2-methylpropionyl]-L-prolin]
Erkrankungsrate an Diabetes mellitus (nach 3 Jahren, versus placebo, 2 x 3 mg täglich, p < 0,001 (Student's t-Test)): geringere Erkrankungsrate an Diabetes mellitus | DIABETES MELLITUS (ERKRANKUNGSRATE AN DIABETES MELLITUS) (ZEITRAUM 1985 -1 (start), 63 in group): 0 | DIABETES MELLITUS (ERKRANKUNGSRATE AN DIABETES MELLITUS) (ZEITRAUM 1986 - 2, 60 in group): 2 | DIABETES MELLITUS (ERKRANKUNGSRATE AN DIABETES MELLITUS) (ZEITRAUM 1987 - 2, 54 in group): 4 | DIABETES MELLITUS (ERKRANKUNGSRATE AN DIABETES MELLITUS) (ZEITRAUM 1988 - 1, 48 in group, placebo 11 of 46, p< 0,001): 4 | Verminderung dieses Risikos (an Diabetes mellitus zu erkranken) (risk groups (strongly overweight, older than 50 years; risk about 45 % over two years), 2 x 3 mg pro Tag): > 50%

Source: patent EP0331014A2, “Use of ACE inhibitors in diabetes prophylaxis” (THERA - Patent Verwaltungs-GmbH, priority 1988, dated 1989)
